Assay results: PubChem BioAssay (NCI)
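Results reflect a 48-hour exposure of cells in 96-well plates to compound at five concentrations. TGI denotes the concentration required for complete inhibition of growth.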

Columns and labels:
Experiment in all cases: NCI anticancer screen, dose series, 48 h
[1] = tested on: HL-60(TB) leukemia
[2] = tested on: HT29 colon
[3] = tested on: OVCAR-5 ovarian
[4] = tested on: CCRF-CEM leukemia
[5] = tested on: OVCAR-8 ovarian
[6] = tested on: DMS 114 small cell lung
[7] = tested on: LXFL 529 NSCLC
[8] = tested on: A498 renal
[9] = tested on: SF-268 CNS
[10] = tested on: HCT-15 colon
[11] = tested on: NCI-H460 lung
[12] = tested on: IGROV1 ovarian
[13] = tested on: DMS 273 small cell lung
[14] = tested on: OVCAR-4 ovarian
[15] = tested on: SN12C renal
[16] = tested on: UO-31 renal
[17] = tested on: HOP-62 NSCLC
[18] = tested on: ACHN renal
[19] = tested on: SNB-78 CNS
[20] = tested on: MALME-3M melanoma
[21] = tested on: UACC-62 melanoma
[22] = tested on: NCI-H522 lung
[23] = tested on: COLO 205 colon
[24] = tested on: EKVX NSCLC
[25] = tested on: HCC-2998 colon
[26] = tested on: K-562 leukemia
[27] = tested on: SF-539 CNS
[28] = tested on: SK-MEL-2 melanoma
[29] = tested on: OVCAR-3 ovarian
[30] = tested on: NCI-H23 lung
[31] = tested on: SR leukemia
[32] = tested on: SNB-19 CNS
[33] = tested on: TK-10 renal
[34] = tested on: M14 melanoma
[35] = tested on: SF-295 CNS
[36] = tested on: KM12 colon
[37] = tested on: A549 NSCLC
[38] = tested on: MOLT-4 leukemia
[39] = tested on: U251 CNS
[40] = tested on: LOX IMVI melanoma
[41] = tested on: SK-MEL-5 melanoma
[42] = tested on: RPMI-8226 leukemia
[43] = tested on: SK-MEL-28 melanoma
[44] = tested on: SK-OV-3 ovarian
[45] = tested on: XF 498 CNS
[46] = tested on: RXF 393 renal
[47] = tested on: HOP-92 NSCLC
[48] = tested on: 786-0 renal
[49] = tested on: UACC-257 melanoma
[50] = tested on: DLD-1 colon
[51] = tested on: SW-620 colon
[52] = tested on: KM20L2 colon
[53] = tested on: NCI-H226 lung
[54] = tested on: M19-MEL melanoma
[55] = tested on: SNB-75 CNS
[56] = tested on: HCT-116 colon
[57] = tested on: HOP-18 NSCLC
[58] = tested on: CAKI-1 renal

Measured: TGI

O=C(CNC(=O)OCc1ccccc1)Oc1ccccc1
> 42.7 µM: [32]
> 100 µM: [1] | [2] | [3] | [4] | [5] | [6] | [7] | [8] | [9] | [10] | [11] | [12] | [13] | [14] | [15] | [16] | [17] | [18] | [19] | [20] | [21] | [22] | [23] | [24] | [25] | [26] | [27] | [28] | [29] | [30] | [31] | [33] | [34] | [35] | [36] | [37] | [38] | [39] | [40] | [41] | [42] | [43] | [44] | [45] | [46] | [47] | [48] | [49] | [50] | [51] | [52] | [53] | [54] | [55] | [56] | [57]

COc1ccc2c([nH]c3cc(O)c(C)cc32)c1C=O
> 25 µM: [1] | [2] | [3] | [4] | [5] | [6] | [7] | [9] | [10] | [11] | [12] | [13] | [14] | [15] | [16] | [17] | [18] | [19] | [20] | [21] | [22] | [23] | [25] | [26] | [27] | [28] | [29] | [31] | [32] | [33] | [34] | [36] | [37] | [38] | [39] | [40] | [41] | [42] | [43] | [44] | [45] | [46] | [47] | [48] | [50] | [51] | [52] | [53] | [54] | [56]

CC(=O)OCSc1ncnc2c1ncn2CN1CCOCC1
> 100 µM: [1] | [3] | [4] | [5] | [6] | [7] | [8] | [9] | [10] | [11] | [12] | [13] | [14] | [15] | [16] | [17] | [58] | [18] | [19] | [20] | [21] | [22] | [24] | [25] | [26] | [27] | [28] | [29] | [31] | [32] | [33] | [34] | [35] | [36] | [37] | [38] | [39] | [41] | [42] | [43] | [44] | [46] | [47] | [48] | [49] | [50] | [51] | [52] | [53] | [54] | [55] | [56] | [57]
76.6 µM: [40]
53.2 µM: [30]
53.1 µM: [23]
94.8 µM: [2]

CCOC(=O)/C(=C\c1ccc(OCc2ccccc2)c(OC)c1)C(=O)c1ccccc1
45.6 µM: [15]
42.5 µM: [53]
86.5 µM: [42]
50 µM: [54]
48.3 µM: [26]
48.6 µM: [3]
31.3 µM: [56]
40 µM: [51]
32.4 µM: [16]
> 100 µM: [14] | [25] | [31] | [44]
> 10 µM: [5] | [37] | [49]
34.8 µM: [18]
31.9 µM: [41]
34.3 µM: [52]
31.1 µM: [39]
30.5 µM: [34]
58.5 µM: [4]
30 µM: [40]
48.4 µM: [21]
64.6 µM: [12]
32.3 µM: [20] | [45]
33.6 µM: [17]
32.6 µM: [22]
31.2 µM: [27]
49 µM: [1]
42.3 µM: [10]
58.1 µM: [29]
43.6 µM: [38]
40.7 µM: [28]
35.2 µM: [30]
41.4 µM: [6]
64.7 µM: [58]
66.4 µM: [32]
41.2 µM: [36]
46.8 µM: [35]
61 µM: [33]
99.2 µM: [23]
37.7 µM: [48]
76.8 µM: [19]
30.4 µM: [43]
66.2 µM: [24]
